Data reported in patent US9272980B2, “Anticancer agent” (KTN BioTec, Inc., priority 2014, dated 2016).

What was measured:
[1] = test system: human malignant pleural mesothelioma cell lines (NCI-H28, NCI-H2052, NCI-H2452 and MSTO-211H cells); experiment: MTT cell viability assay, malignant mesothelioma cell lines; type: cell-based; details: 24 hr
Excerpt: Cancer cells (NCI-H28, NCI-H2052, NCI-H2452 and MSTO-211H) treated or not treated with a given concentration of each test compound for 24 hr were subjected to MTT assay. […] As a control, MTT intensity of the cells not treated with any of naftopidil and the aryloxy derivative of the present invention was used.
NCI-H28, NCI-H2052, NCI-H2452 and MSTO-211H cells were used as human malignant pleural mesothelioma cell lines. These cells were purchased from American Type Culture Collection (Manassas, Va., USA). The cells were cultured in RPMI (Roswell Park Memorial Institute)-1640 medium added with 0.003% (W/V) L-glutamine.
(§1) In all cultures, the medium was supplied with 10% (v/v) heat inactivated bovine serum, penicillin (final concentration 100 U/ml) and streptomycin (final concentration 0.1 mg/ml), and culture was performed at 37° C. under humidification atmosphere of 5% CO2 and 95% air.
(§2) The cell viability was measured by a method using MTT (3-(4,5-dimethyl-2-thiazolyl)-2,5-diphenyl-2H-tetrazolium bromide) in the same manner as in a published report (Cell Physiol Biochem 2012; 30: 61-74).

[2] = test system: MKN45 gastric cancer cells; experiment: Growth of subcutaneously inoculated MKN45 gastric cancer cells in nude mouse; type: in vivo; details: nude BALB/c-nu/nu mouse, MKN45 subcutaneous, 0.23 mg/mouse 25 μM intraperitoneal twice per week, day 33
Protocol: MKN45 gastric cancer cells were subcutaneously inoculated into the flank of mouse, and 1 week later (day 0), 25 μM of HUHS1015 and 25 μM of naftopidil were intraperitoneally administered (twice/1 week). As a control, a mouse administered with saline was used. The time-course changes (A) of the tumor volume (mean±SEM, n=7) and the results (B) of tumor weight (mean±SEM, n=7) after the lapse of 33 days are shown. P value, Dunnett's test. NS, not significant
Nude BALB/c-nu/nu mouse (male, 6 week-old) was purchased from Japan SLC, Inc. (Shizuoka, Japan). MKN45 cells (1×10^7 cells) were suspended in a culture medium (200 μl) containing Matrigel (BD Biosciences, San Jose, Calif., USA) and subcutaneously inoculated to the flank of the mouse under general anesthesia with pentobarbital. HUHS1015 (0.23 mg/mouse 25 μM) or naftopidil (0.25 mg/mouse 25 μM) was diluted with saline. At 1 week (Day 0) after inoculation, intraperitoneal administration of saline, HUHS1015 or naftopidil twice per week was started. The longitudinal length (L) and transverse length (S) of the inoculated tumor were measured with calipers, and the tumor volume (V) was calculated from the following formula: V=L×S^2×1/2 The mouse was sacrificed on day 33, the tumor was isolated and the weight thereof was measured.

[3] = test system: human lung cancer cell lines (A549, SBC-3, and Lu-65 cells); experiment: MTT cell viability assay, lung cancer cell lines; type: cell-based; details: A549, SBC-3, Lu-65 cells, 1-100 μM, 24 hr
Excerpt: (§3) The following cell lines treated or not treated with a given concentration of HUHS1015 for 24 hr were subjected to MTT assay. (A) lung cancer cell line (B) liver cancer cell line (C) gastric cancer cell line (D) bladder cancer cell line (E) prostate cancer cell line (F) kidney cancer cell line. […] As a control, MTT intensity of the cells not treated with HUHS1015 was used.
A549, SBC-3 and Lu-65 cells were used as human lung cancer cell lines. These cells were purchased from Health Science Research Resources Bank (Osaka, Japan). A549 cells and SBC-3 cells were cultured in MEM (minimum essential medium) added with 0.1 mM non-essential amino acid, and Lu-65 cells were cultured in RPMI-1640 medium.
as §1, §2

[4] = test system: human bladder cancer cell lines (253J, 5637, KK-47, TCCSUP, T24, and UM-UC-3 cells); experiment: MTT cell viability assay, bladder cancer cell lines; type: cell-based; details: T24, UM-UC-3 cells, 1-100 μM, 24 hr
Excerpt: as §3
253J cells, 5637 cells, KK-47 cells, TCCSUP cells, T24 cells and UM-UC-3 cells were used as human bladder cancer cell lines.
KK-47 cells were provided by Dr. Naito (Department of Urology, Kyushu University, Fukuoka, Japan). 253J cells, 5637 cells, TCCSUP cells, T24 cells and UM-UC-3 cells were purchased from American Type Culture Collection (Manassas, Va., USA). All cells were cultured in RPMI-1640 medium.
as §1, §2

[5] = test system: human prostate cancer cell lines (DU145, LNCap, and PC-3 cells); experiment: MTT cell viability assay, prostate cancer cell lines; type: cell-based; details: 1-100 μM, 24 hr
Excerpt: as §3
DU145 cells, LNCap cells and PC-3 cells were used as human prostate cancer cell lines. These cells were purchased from American Type Culture Collection. The DU145 cells were cultured in DMEM. The LNCaP and PC-3 cells were cultured in RPMI-1640 medium.
as §1, §2

[6] = test system: human liver cancer cell lines (HepG2 and HuH-7 cells); experiment: MTT cell viability assay, liver cancer cell lines; type: cell-based; details: HepG2, HuH-7 cells, 1-100 μM, 24 hr
Excerpt: as §3
HepG2 cells and HuH-7 cells were used as human […] cancer cell lines. These cells were obtained from RIKEN cell bank (Ibaraki, Japan) and cultured in DMEM (Dulbecco's Modified Eagles Medium).
as §1, §2

[7] = test system: human kidney cancer cell lines (ACHN, RCC4-VHL, and 786-O cells); experiment: MTT cell viability assay, kidney cancer cell lines; type: cell-based; details: 1-100 μM, 24 hr
Excerpt: as §3
ACHN cells, RCC4-VHL cells and 786-O cells were used as human kidney cancer cell lines. These cells were purchased from European Collection of Animal Cell Cultures (ECACC; Salisbury, UK), and cultured in DMEM.
as §1, §2

[8] = test system: human gastric cancer cell lines (MKN-28 and MKN-45 cells); experiment: MTT cell viability assay, gastric cancer cell lines; type: cell-based; details: MKN-28, MKN-45 cells, 1-100 μM, 24 hr
Excerpt: as §3
MKN-28 cells and MKN-45 cells were used as human gastric cancer cell lines. These cells were obtained from Dr. Tatematsu (Nagoya University, Japan) and cultured in RPMI-1640 medium.
as §1, §2

[9] = malignant mesothelioma cell lines, 1-100 μM

## COc1ccccc1N1CCN(CC(O)COc2cccc3ccccc23)CC1 (racemic) [naftopidil, (±)-1-[4-(2-methoxyphenyl)piperazinyl]-3-(1-naphthyloxy)propan-2-ol, reference compound]
[1]; all examined malignant mesothelioma cell lines, 1-100 μM
  cell viability (MTT): reduced the cell viability in a concentration dependent manner
[1]; malignant mesothelioma cell lines, concentration of 100 µM, % control
  cell viability (MTT): ~0%

## COc1cccc(N2CCN(CC(O)COc3cccc4ccccc34)CC2)c1 (stereo not shown) [HUHS1002, 1-(4-(3-methoxyphenyl)piperazinyl)-3-(1-naphthyloxyl)propan-2-ol, reference compound]
[1]; [9]
  activity in reducing cell viability (MTT): high activity

## OC(COc1cccc2ccccc12)CN1CCN(c2ccccc2)CC1 (stereo not shown) [HUHS1004, 3-(1-naphthyloxy)-1-(4-phenylpiperazinyl)propan-2-ol]
[1]; [9]
  activity in reducing cell viability (MTT): high activity

## OC(COc1cccc2ccccc12)CN1CCN(c2ccccc2Cl)CC1 (stereo not shown) [HUHS1014, 1-(4-(2-chlorophenyl)piperazinyl)-3-(1-naphthyloxy)-propan-2-ol]
[1]; [9]
  activity in reducing cell viability (MTT): high activity

## COc1ccccc1NCCNCC(O)COc1cccc2ccccc12 (stereo not shown) [HUHS1015, 1-((2-((2-methoxyphenyl)amino)ethyl)amino)-3-(1-naphthyloxy)propan-2-ol]
[2]
  antitumor effect on gastric cancer (tumor volume, tumor weight): superior to naftopidil
[1]; [9]
  activity in reducing cell viability (MTT): high activity
[3]
  cell viability (MTT): reduced the cell viability in a concentration dependent manner
[4]
  cell viability (MTT): reduced the cell viability in a concentration dependent manner
[5]
  cell viability (MTT): reduced the cell viability in a concentration dependent manner
[6]
  cell viability (MTT): reduced the cell viability in a concentration dependent manner
[7]
  cell viability (MTT): reduced the cell viability in a concentration dependent manner
[8]
  cell viability (MTT): reduced the cell viability in a concentration dependent manner

## COc1ccccc1C1CCN(CC(O)COc2cccc3ccccc23)CC1 (stereo not shown) [HUHS1017, 1-(4-(2-methoxyphenyl)piperidin-1-yl)-3-(1-naphthyloxyl)propan-2-ol]
[1]; [9]
  activity in reducing cell viability (MTT): high activity

## CCCCCCCN1CCN(CC(O)COc2cccc3ccccc23)CC1 (stereo not shown) [HUHS1018, 1-(4-heptylpiperazinyl)-3-(1-naphthyloxyl)propan-2-ol]
[1]; [9]
  activity in reducing cell viability (MTT): high activity

## CCCCCCCCN1CCN(CC(O)COc2cccc3ccccc23)CC1 (stereo not shown) [HUHS1019, 3-(1-naphthyloxy)-1-(4-octylpiperazinyl)propan-2-ol]
[1]; [9]
  activity in reducing cell viability (MTT): high activity
